The test system of experiment [1] is MOG-induced mouse experimental autoimmune encephalomyelitis model. Briefly: MOG-induced mouse experimental autoimmune encephalomyelitis model, 30 mg/kg. Type of experiment: in vivo. As to conditions: C57BL/6J mouse, MOG 35-55; 30 mg/kg orally twice daily for 16 days from three days before inoculation; scored 13 days after inoculation. How it is done:
The action of the cyclohexane derivative (I) or the pharmaceutically acceptable salt thereof against an increase in the neurological symptom score in a MOG-induced mouse experimental autoimmune encephalomyelitis model was evaluated. The mouse experimental autoimmune encephalomyelitis model was prepared according to the method described in Journal of Neuroscience Research, 2006, Vol. 84, pp. 1225-1234 with partial modification. A MOG 35-55 administration solution, which was prepared by mixing equal volumes of a PBS solution containing a partially synthesized peptide of MOG (MOG 35-55; CS Bio Company Inc.) whose concentration was adjusted to 4 mg/mL and Freund's complete adjuvant, was intracutaneously inoculated to both lateral regions of each C57BL/6J mouse (male, 7-weeks old) (Charles River Laboratories Japan) in a total amount of 0.1 mL (0.05 mL per side). Further, on the day of inoculation of the MOG 35-55 administration solution, and two days thereafter, 200 μL of pertussis toxin (Sigma) whose concentration was adjusted to 1 μg/mL was intraperitoneally administered to each mouse. From three days before inoculation of the MOG 35-55 administration solution, Compound 3 was orally administered to mice twice daily at a dose of 30 mg/kg for 16 successive days. Compound 3 was used as a suspension in 0.5% methylcellulose solution. The group in which Compound 3 was administered to mice was provided as the Compound 3 administration group. To provide a vehicle administration group, 0.5% methylcellulose solution was administered in the same manner. Thirteen days after inoculation of the MOG 35-55 administration solution, the neurological symptom score was scored (0: normal, 1: limp tail or hind limb weakness, 2: limp tail and hind limb weakness, 3: partial hind limb paralysis, 4: complete hind limb paralysis, 5: moribund state). […] Comparative Control Compound 1 and Comparative Control Compound 2 were similarly evaluated. […] Thirteen days after inoculation of the MOG 35-55 administration solution, the neurological symptom score was scored.

The test system is the same in experiment [2]. Briefly: MOG-induced mouse experimental autoimmune encephalomyelitis model, 3 mg/kg and 10 mg/kg. As to conditions: C57BL/6J mouse, MOG 35-55, scored 14 days after inoculation. Type of experiment: in vivo. The method, then:
Action of the cyclohexane derivative (I) or the pharmaceutically acceptable salt thereof against an increase in the neurological symptom score in a MOG-induced mouse experimental autoimmune encephalomyelitis model was evaluated. A MOG 35-55 administration solution, which was prepared by mixing equal volumes of a PBS solution containing a partially synthesized peptide of MOG (MOG 35-55; CS Bio Company Inc.) whose concentration was adjusted to 4 mg/mL and Freund's complete adjuvant, was intracutaneously inoculated to both lateral regions of each C57BL/6J mouse (male, 10-weeks old) (Charles River Laboratories Japan) in a total amount of 0.1 mL (0.05 mL per side). Further, on the day of inoculation of the MOG 35-55 administration solution, and two days thereafter, 200 μL of pertussis toxin (Sigma) whose concentration was adjusted to 1 μg/mL was intraperitoneally administered to each mouse. As a test compound, Compound 3 was used. […] Fourteen days after inoculation of the MOG 35-55 administration solution, the neurological symptom score was scored (0: normal, 1: limp tail or hind limb weakness, 2: limp tail and hind limb weakness, 3: partial hind limb paralysis, 4: complete hind limb paralysis, 5: moribund state). […]

The next experiment deals with T1, thrombin (Homo sapiens, UniProt P00734).
T1 construct: purchased Anaspec Inc
In words: Thrombin activity assay (SensoLyte 520 kit, FRET). Type of experiment: biochemical. To be noted: at the maximum concentration, 30 μmol/L; read-out: thrombin activity inhibition rate.

Experiment [3] has as its system PLP-induced mouse experimental autoimmune encephalomyelitis model. In words: PLP-induced mouse experimental autoimmune encephalomyelitis model. Type of experiment: in vivo. To be noted: SJL mouse, PLP 139-151; 10 mg/kg orally twice daily for 7 days from two days after inoculation; scored 9 days after inoculation. The method, then:
Action of the cyclohexane derivative (I) or the pharmaceutically acceptable salt thereof against an increase in the neurological symptom score in a PLP-induced mouse experimental autoimmune encephalomyelitis model was evaluated. The mouse experimental autoimmune encephalomyelitis model was prepared according to the method described in International Immunology, 1997, Vol. 9, pp. 1243-1251 with partial modification. A PLP 139-151 administration solution, which was prepared by mixing equal volumes of a PBS solution containing a partially synthesized peptide of PLP (PLP 139-151; Kokusan Chemical Co., Ltd.) whose concentration was adjusted to 2 mg/mL and Freund's complete adjuvant, was intracutaneously inoculated to both lateral regions of each SJL mouse (female, 6-weeks old) (Charles River Laboratories Japan) in a total amount of 0.1 mL (0.05 mL per side). Further, on the day of inoculation of the PLP 139-151 administration solution, and two days thereafter, 200 μL of pertussis toxin (Sigma) whose concentration was adjusted to 1 μg/mL was intraperitoneally administered to each mouse. […] Nine days after inoculation of the PLP 139-151 administration solution, the neurological symptom score was scored (0: normal, 1: limp tail or hind limb weakness, 2: limp tail and hind limb weakness, 3: partial hind limb paralysis, 4: complete hind limb paralysis, 5: moribund state). […]

Each structure is given as a SMILES string.

Method for thrombin: The action of the cyclohexane derivative (I) or the pharmaceutically acceptable salt thereof on the thrombin activity was evaluated using a SensoLyte (registered trademark) 520 thrombin activity assay kit manufactured by Anaspec Inc., which utilizes fluorescence resonance energy transfer (FRET).
The test compound was dissolved in dimethylsulfoxide (hereinafter referred to as DMSO), and diluted with the assay buffer included in the kit to a final DMSO concentration of 0.5 to 1%. […] Thereafter, the fluorescence value was measured by excitation at 485 nm and detection at 520 nm.
The thrombin activity inhibition rate (%) was calculated according to Equation 1, and regression analysis was carried out to obtain a sigmoid curve (variable slope), thereby calculating the IC50 value of the thrombin activity inhibition by the test compound: Thrombin activity inhibition rate (%)=(1−((fluorescence value in the presence of both thrombin and the test compound)−(fluorescence value in the absence of both thrombin and the test compound))/((fluorescence value in the presence of thrombin and absence of the test compound)−(fluorescence value in the absence of both thrombin and the test compound)))×100 Equation 1.

As for `COc1ccc(-n2nc(C3(O)CCC(O)CC3)cc2-c2ccccc2C)cc1` (stereo not shown) [Comparative Control Compound 2], in experiment [1], the “rate of suppression of exacerbation of neurological symptoms” value (“rate … of neurological symptoms” below) came to 6.5%.

Take `COc1ccc(-n2nc(C3(O)CCNCC3)cc2-c2ccc(C)cc2)cc1` [Comparative Control Compound 1]: in experiment [1], the “rate … of neurological symptoms” value is given as 3.3%.

Consider `COc1ccc(-n2nc(C3(O)CCC(O)CC3)cc2-c2ccc(C)cc2)cc1` (stereo not drawn) [Compound 3, 1-(1-(4-methoxyphenyl)-5-(p-tolyl)-1H-pyrazol-3-yl)cyclohexane-cis-1,4-diol], for which the “rate … of neurological symptoms” value in experiment [2] (3 mg/kg orally twice daily for 12 days from two days after inoculation) was 53.8%; in experiment [2] (10 mg/kg orally twice daily for 12 days from two days after inoculation) it was 61.5%; in experiment [1] it was 85.7%; in experiment [3], 66.4%. The inhibition at 30 µM on thrombin came out at 17.2%.

The values above are taken from US10130608B2, “Methods of treating or preventing multiple sclerosis” (Toray Industries, Inc., priority 2014, dated 2018).
